Columns and labels:
[1] = tested on: N-87 (human gastric cancer cells); test: MTT cancer cell growth inhibition; format: cell-based; conditions: Homo sapiens, 72 h, MTT, 72 hours incubation, N-87 cells; read-out: GI50 N-87
Excerpt: (§1) MTT assay principle is yellow MTT can penetrate membrane into the cell, succinic dehydrogenase of the mitochondria in living cells can make exogenous MTT reduction of insoluble in water of blue-violet acicular formazan for crystallization and deposition in the cell, crystallization can be dissolved dimethyl sulfoxide (DMSO) solution, detected its absorbance at 490 nm/570 nm wavelength by enzyme-linked immunosorbent assay, which can reflect the number of cells.
(§2) Using DMEM+10% FBS culture medium or using 1640+10% FBS culture, respectively.
(§3) a) Cells were seeded in 96-well plates with the inoculation of 1500/well, 190 μl/hole, 37° C., 5% of CO2 incubator overnight;
(§4) b) The next day each well was added 10 μl of different drugs. The final concentration of drug was 10^−5˜10^−10M, three parallel holes; 37° C., 5% CO2 culture incubator for 72 hours incubation;
(§5) c) Per well was added 20 μl 5 mg/ml of MTT, 37° C., 5% CO2 culture incubator for 4 hours incubation;
(§6) d) The supernatant was discarded. Each well was added 100 μl of DMSO and oscillation;
(§7) e) 570 nm readings. Calculate cell viability. GI50 calculation based on the results.

[2] = tested on: K562 (human leukemia cells); test: MTT cancer cell growth inhibition; format: cell-based; conditions: Homo sapiens, K562, 72 h, MTT, 72 hours incubation, K562 cells; read-out: GI50 K562
Excerpt: as §1, §2, §3, §4, §5, §6, §7

[3] = tested on: MCF-7 (human breast cancer cells); test: MTT cancer cell growth inhibition; format: cell-based; conditions: Homo sapiens, MCF7, 72 h, 72 hours incubation, read-out: GI50 MCF
Excerpt: as §1, §2, §3, §4, §5, §6, §7

[4] = tested on: SGC-7901 (human gastric cancer cells); test: MTT cancer cell growth inhibition; format: cell-based; conditions: Homo sapiens, SGC-7901, 72 h, MTT, 72 hours incubation, SGC-7901 cells; read-out: GI50 SGC-7901
Excerpt: as §1, §2, §3, §4, §5, §6, §7

[5] = tested on: KBM-5 (human chronic myelogenous leukemia); test: MTT cancer cell growth inhibition; format: cell-based; conditions: Homo sapiens, KBM5, 72 h, MTT, 72 hours incubation, KBM-5 cells; read-out: GI50 KBM-5
Excerpt: as §1, §2, §3, §4, §5, §6, §7

[6] = tested on: U937 (human leukemia cells); test: MTT cancer cell growth inhibition; format: cell-based; conditions: Homo sapiens, U-937, 72 h, MTT, 72 hours incubation; read-out: GI50 U93
Excerpt: as §1, §2, §3, §4, §5, §6, §7

[7] = tested on: Huh-7 (human hepatoma cells); test: MTT cancer cell growth inhibition; format: cell-based; conditions: Homo sapiens, Huh-7, 72 h, MTT, 72 hours incubation, Huh-7 cells; read-out: GI50 Huh-7
Excerpt: as §1, §2, §3, §4, §5, §6, §7

[8] = tested on: BGC-823 (human gastric cancer cells); test: MTT cancer cell growth inhibition; format: cell-based; conditions: Homo sapiens, BGC-823, 72 h, MTT, 72 hours incubation; read-out: GI50 BG
Excerpt: as §1, §2, §3, §4, §5, §6, §7

[9] = tested on: KBM5-T315I (human chronic myelogenous leukemia); test: MTT cancer cell growth inhibition; format: cell-based; conditions: Homo sapiens, 72 h, MTT, 72 hours incubation, KBM5-T315I cells; read-out: GI50 KBM5-T315I
Excerpt: as §1, §2, §3, §4, §5, §6, §7

[10] = tested on: lncap (prostate cancer cells); test: MTT cancer cell growth inhibition; format: cell-based; conditions: Homo sapiens, LNCaP, 72 h, MTT, 72 hours incubation; read-out: GI50 lnca
Excerpt: as §1, §2, §3, §4, §5, §6, §7

[11] = tested on: DU145 (human prostate cancer cells); test: MTT cancer cell growth inhibition; format: cell-based; conditions: Homo sapiens, DU-145, 72 h, MTT, 72 hours incubation; read-out: GI50 Du1
Excerpt: as §1, §2, §3, §4, §5, §6, §7

[12] = tested on: HCC827 (human non-small cell lung cancer cells); test: MTT cancer cell growth inhibition; format: cell-based; conditions: Homo sapiens, HCC827, 72 h, MTT, 72 hours incubation, HCC827 cells; read-out: GI50 HCC827
Excerpt: as §1, §2, §3, §4, §5, §6, §7

[13] = tested on: Bel-7402 (human hepatoma cells); test: MTT cancer cell growth inhibition; format: cell-based; conditions: Homo sapiens, Bel-7402, 72 h, MTT, 72 hours incubation, Bel-7402 cells; read-out: GI50 Bel-7402
Excerpt: as §1, §2, §3, §4, §5, §6, §7

[14] = tested on: MDA-MB-231 (breast cancer cells); test: MTT cancer cell growth inhibition; format: cell-based; conditions: Homo sapiens, MDA-MB-231, 72 h, read-out: GI50 MDA-MB-231, MTT, 72 hours incubation, MDA-MB-231 cells
Excerpt: as §1, §2, §3, §4, §5, §6, §7

[15] = tested on: MOLT-4 (human acute lymphoblastic leukemia cells); test: MTT cancer cell growth inhibition; format: cell-based; conditions: Homo sapiens, MOLT-4, 72 h, MTT, 72 hours incubation; read-out: GI50 Mol
Excerpt: as §1, §2, §3, §4, §5, §6, §7

[16] = tested on: Hela (human cervical cancer cells); test: MTT cancer cell growth inhibition; format: cell-based; conditions: Homo sapiens, HeLa, 72 h, MTT, 72 hours incubation; read-out: GI50 Hela
Excerpt: as §1, §2, §3, §4, §5, §6, §7

[17] = tested on: A549 (human lung cancer cells); test: MTT cancer cell growth inhibition; format: cell-based; conditions: Homo sapiens, A549, 72 h, MTT, 72 hours incubation; read-out: GI50 A54
Excerpt: as §1, §2, §3, §4, §5, §6, §7

[18] = tested on: HT1080 (human fibrosarcoma cells); test: MTT cancer cell growth inhibition; format: cell-based; conditions: Homo sapiens, HT-1080, 72 h, MTT, 72 hours incubation; read-out: GI50 HT1
Excerpt: as §1, §2, §3, §4, §5, §6, §7

[19] = tested on: PANC-1 (Pac-1, human pancreatic cancer cells); test: MTT cancer cell growth inhibition; format: cell-based; conditions: Homo sapiens, PANC-1, 72 h, MTT, 72 hours incubation; read-out: GI50 PAN
Excerpt: as §1, §2, §3, §4, §5, §6, §7

[20] = tested on: H1975 (non-small cell lung adenocarcinoma); test: MTT cancer cell growth inhibition; format: cell-based; conditions: Homo sapiens, NCI-H1975, 72 h, MTT, 72 hours incubation, H1975 cells; read-out: GI50 H1975
Excerpt: as §1, §2, §3, §4, §5, §6, §7

HDAC7 = biological target: T1, HDAC7 (Homo sapiens, UniProt Q8WUI4); test: HDAC biochemical activity measurement (fluorescent substrate deacetylation);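 further: fluorogenic deacetylation assay using acetyl-lysine substrate at 20 µM, enzyme and compound incubated 30 min at 37 °C, then developer added, fluorescence read at 360/460 nm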; conditions: HDAC7; 37° C. 30 minutes
T1 sequence (Q8WUI4 1-952): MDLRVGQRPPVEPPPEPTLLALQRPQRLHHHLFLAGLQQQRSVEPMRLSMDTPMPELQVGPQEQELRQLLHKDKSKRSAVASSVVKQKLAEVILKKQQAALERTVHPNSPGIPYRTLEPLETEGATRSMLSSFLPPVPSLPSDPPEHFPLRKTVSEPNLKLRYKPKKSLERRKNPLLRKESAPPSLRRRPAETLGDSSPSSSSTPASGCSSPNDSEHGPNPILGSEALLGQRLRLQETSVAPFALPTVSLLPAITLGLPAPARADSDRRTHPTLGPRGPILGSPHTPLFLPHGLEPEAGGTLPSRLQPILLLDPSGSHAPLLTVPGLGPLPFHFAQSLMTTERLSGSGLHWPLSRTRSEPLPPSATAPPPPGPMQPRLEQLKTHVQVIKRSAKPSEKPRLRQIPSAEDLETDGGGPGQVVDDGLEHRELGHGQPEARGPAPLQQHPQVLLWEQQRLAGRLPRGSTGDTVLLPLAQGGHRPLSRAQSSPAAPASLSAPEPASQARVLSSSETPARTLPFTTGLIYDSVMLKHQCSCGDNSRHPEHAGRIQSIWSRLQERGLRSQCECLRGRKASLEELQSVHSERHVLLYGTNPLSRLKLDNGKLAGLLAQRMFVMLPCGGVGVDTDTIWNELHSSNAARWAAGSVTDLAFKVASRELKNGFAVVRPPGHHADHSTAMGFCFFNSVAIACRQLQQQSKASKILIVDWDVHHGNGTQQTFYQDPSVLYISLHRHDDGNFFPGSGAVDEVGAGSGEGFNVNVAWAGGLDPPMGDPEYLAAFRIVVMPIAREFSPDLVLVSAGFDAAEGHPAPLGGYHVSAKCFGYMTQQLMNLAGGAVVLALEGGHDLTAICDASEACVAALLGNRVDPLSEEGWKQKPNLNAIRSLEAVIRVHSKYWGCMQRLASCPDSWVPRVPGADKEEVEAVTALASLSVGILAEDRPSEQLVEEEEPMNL

SMILES	GI50 [1] [nM]	GI50 [2] [nM]	GI50 [3] [nM]	GI50 [4] [nM]	GI50 [5] [nM]	GI50 [6] [nM]	GI50 [7] [nM]	GI50 [8] [nM]	GI50 [9] [nM]	GI50 [10] [nM]	GI50 [11] [nM]	GI50 [12] [nM]	GI50 [13] [nM]	GI50 [14] [nM]	GI50 [15] [nM]	GI50 [16] [nM]	GI50 [17] [nM]	GI50 [18] [nM]	GI50 [19] [nM]	GI50 [20] [nM]	further results
C/C=C1\NC(=O)c2cc(F)cc(n2)CNC(=O)C[C@@H](/C=C/CCS)OC(=O)[C@H](CCCCNC(=O)OCC2c3ccccc3-c3ccccc32)NC1=O [Compound 121]	23	38	20	33	46	60	45	190	23	110	30	42	26	75	30	50	210	70	70	28	IC50 HDAC7 (HDAC7): no activity
C/C=C1\NC(=O)c2ccc(F)c(n2)CNC(=O)C[C@@H](/C=C/CCS)OC(=O)[C@H](CCCCNC(=O)OCC2c3ccccc3-c3ccccc32)NC1=O [Compound 122]	48	46	30	61	38	110	91	20	26	30	80	32	49	32	100	50	110	30	30	55	IC50 HDAC7 (HDAC7): no activity
C/C=C1\NC(=O)c2cccc(n2)CNC(=O)C[C@@H](/C=C/CCS)OC(=O)[C@H](Cc2cccc3ccccc23)NC1=O [Compound 123]	62	36	60	51	68	60	35	40	67	90	60	69	27	39	90	90	60	90	40	21	IC50 HDAC7 (HDAC7): no activity
C/C=C1\NC(=O)c2nc(ccc2F)CNC(=O)C[C@@H](/C=C/CCS)OC(=O)[C@H](Cc2cccc3ccccc23)NC1=O [Compound 124]	45	76	30	42	57	100	16	30	15	70	20	35	72	51	50	30	50	30	690	28	IC50 HDAC7 (HDAC7): no activity
C/C=C1\NC(=O)c2cc(F)cc(n2)CNC(=O)C[C@@H](/C=C/CCS)OC(=O)[C@H](Cc2cccc3ccccc23)NC1=O [Compound 125]	31	47	60	39	64	50	25	30	58	110	30	29	57	75	110	50	60	40	120	36	IC50 HDAC7 (HDAC7): no activity
C/C=C1\NC(=O)c2ccc(F)c(n2)CNC(=O)C[C@@H](/C=C/CCS)OC(=O)[C@H](Cc2cccc3ccccc23)NC1=O [Compound 126]	33	79	20	81	41	70	51	100	37	20	60	38	49	29	90	130	30	50	30	33	IC50 HDAC7 (HDAC7): no activity
C/C=C1\NC(=O)c2cccc(n2)CNC(=O)C[C@@H](/C=C/CCS)OC(=O)[C@H](Cc2ccc(O)cc2)NC1=O [Compound 127]	46	28	70	36	53	50	71	50	28	80	70	38	37	37	80	80	50	80	50	36	IC50 HDAC7 (HDAC7): no activity

— US10065990B2, “Cyclic peptide compound, and preparation method, pharmaceutical composition and use thereof” (HANGZHOU GUANYU BIO-MEDICAL CO., LTD, priority 2013, dated 2018)
